Data from patent US20060084628A1, “Combination therapy for treating viral infections” (priority 2004, published 2006).
Where two headings read alike, the source gives them in different places.

What was measured:
[1] = Population PK analysis of plasma and urine data, healthy subjects, 1×20 mg tablet PO (ACH443-011); details: human, in vivo
Experimental: The PK model created included an individual compartmental PK analysis using ADAPT-II® and Population PK analysis using an iterative two-stage population modeling technique (IT2S®) of plasma and urine data from a study of healthy subjects, n=29, 1×20 mg tablet PO (ACH443-011). FIG. 1 illustrates the PK model of Elvucitabine according to a three compartment model characterized by two absorption peaks, each associated with a lag (Tlag1 and Tlag2) time and a first order absorption rate constant (Ka1 and Ka2).
FIG. 2 illustrates an example of individual fit using a Population PK analysis (IT2S).

[2] = Hematology (ANC, white blood cell count) in 12 week study in HBV patients; type: in vivo, human
Experimental: Pharmacodynamics of Elvucitabine was explored by analysis of hematology (absolute neutrophil count, ANC) data obtained from a 12 week study in HBV patients. FIG. 3 illustrates the change in mean white blood cell count from baseline for three dosages of Elvucitabine (5 mg, 20 mg, and 50 mg), 100 mg 3TC, and placebo. […] FIG. 4 is a graphic representation of the change in absolute neutrophils from baseline for the same study. Table 2 provides absolute neutrophil count at 10^9/L for the three doses resulting in a baseline estimated as the mean ANC of about 4×10^9/L. A 25 percent decrease in the mean ANC corresponds to about 3×10^9/L, the threshold for the start of toxicity.

HIV = assay: In vitro IC50 for HIV; type: cell-based; details: Human immunodeficiency virus 1
Experimental: (§1) From the foregoing results, a therapeutic window of Elvucitabine was identified. It has been determined that a 5 mg QD dose is effective for HBV and, therefore, a plasma AUCss/24 of 300 μg·h/L was identified as the efficacy threshold.

[3] = PK/PD relationship: toxicity threshold and therapeutic window (simulated concentrations vs observed ANC); parameters: species or system human
From the text: Pharmacokinetics and pharmacodynamics modeling was used to explore potential dosing regimens for Elvucitabine. A pharmacokinetics (PK) model was developed to describe both the plasma concentration-time data and excreted urinary amounts from previously completed studies with Elvucitabine. With the PK model in hand and pharmacodynamics (PD) results of previously completed studies, the relationship of PK and PD from an efficacy and toxicity standpoint is obtained. From the results of the PK and PD studies, a therapeutic window of Elvucitabine is defined and simulated dosing regimens ranging from 5 mg BID to 100 mg Q1 week were explored using ADAPT II® Pharmacokinetic and Pharmacodynamic Systems Analysis Software. From the simulated dosing regimen results, ten dosing regimens were identified allowing maintenance therapy with Elvucitabine at levels effective against both HIV and HBV while avoiding bone toxicity.
FIG. 5 provides a plot of the mean observed ANC and a simulated concentration-time profile for the 5 mg QD dose. As shown by the graph, the toxicity threshold is not met by the dosing regimen. As provided in FIG. 6, the 20 mg QD dose crosses the toxicity threshold at about 1008 hours.
as §1

HBV = assay: Efficacy of daily dosing for HBV; type: in vivo, human; details: 5 mg QD dose
Experimental: as §1

SMILES: Nc1nc(=O)n([C@H]2C=C[C@@H](CO)O2)cc1F [Elvucitabine, 4-amino-5-fluoro-1-((2R,5 S)-5-(hydroxymethyl)-2,5-dihydrofuran-2-yl)pyrimidin-2(1H)-one]
- Vd [1]: 1600 L
- fraction of drug excreted unchanged in urine [1]: about 40%
- half-life ([1]; distribution (λ2) half-life): 30 h
- half-life ([1]; early distribution (λ1) half-life): 0.59 h
- half-life ([1]; elimination (λz) half-life): 175 h
- CLnr/F ([1]; po): 9.51 L/h
- Fu ([1]; po): 39.6%
- Vc/F ([1]; po): 30.6 L
- Vp1/F ([1]; po): 1232 L
- Vp2/F ([1]; po): 369 L
- oral clearance (CL/F) ([1]; po): 16 L/h
- CL renal ([1]; po, 20 mg): 105 mL/min
- CL/F ([1]; po, 20 mg): 15.8 L/h
- Vd/F ([1]; population PK, healthy subjects, 20 mg tablet PO, read-out: Vss/F): 1630 L
- Absolute Neutrophil Count (ANC), Mean ([2]; 5 mg PO daily (n = 17), Week 0): 4.1 10^9/L
- Absolute Neutrophil Count (ANC), Mean ([2]; 5 mg PO daily (n = 17), Week 2): 3.4 10^9/L
- Absolute Neutrophil Count (ANC), Mean ([2]; 5 mg PO daily (n = 17), Week 4): 3.4 10^9/L
- Absolute Neutrophil Count (ANC), Mean ([2]; 5 mg PO daily (n = 17), Week 8): 3.5 10^9/L
- Absolute Neutrophil Count (ANC), Mean ([2]; 5 mg PO daily (n = 17), Week 12): 3.6 10^9/L
- Absolute Neutrophil Count (ANC), Mean ([2]; 20 mg PO daily (n = 20), Week 0): 3.8 10^9/L
- Absolute Neutrophil Count (ANC), Mean ([2]; 20 mg PO daily (n = 20), Week 2): 3.7 10^9/L
- Absolute Neutrophil Count (ANC), Mean ([2]; 20 mg PO daily (n = 20), Week 4): 3.2 10^9/L
- Absolute Neutrophil Count (ANC), Mean ([2]; 20 mg PO daily (n = 20), Week 8): 2.8 10^9/L
- Absolute Neutrophil Count (ANC), Mean ([2]; 20 mg PO daily (n = 20), Week 12): 2.7 10^9/L
- change in mean white blood cell count from baseline ([2]; 50 mg (highest dose), HBV patients, FIG. 3): significant decrease
- Absolute Neutrophil Count (ANC), Mean ([2]; 50 mg PO daily (n = 19), Week 0): 4.1 10^9/L
- Absolute Neutrophil Count (ANC), Mean ([2]; 50 mg PO daily (n = 19), Week 2): 3.1 10^9/L
- Absolute Neutrophil Count (ANC), Mean ([2]; 50 mg PO daily (n = 19), Week 4): 2.3 10^9/L
- Absolute Neutrophil Count (ANC), Mean ([2]; 50 mg PO daily (n = 19), Week 8): 2.2 10^9/L
- Absolute Neutrophil Count (ANC), Mean ([2]; 50 mg PO daily (n = 19), Week 12): 2.6 10^9/L
- IC50 (HIV; corresponds to 4.8 nM, read-out: in vitro IC50 for HIV, as concentration): 1.08 ng/mL
- IC50 (HIV; read-out: in vitro IC50 for HIV): 4.8 nM
- central compartment (plasma) Cmin correlating with onset of toxicity [3]: ≥ 23 ng/mL
- toxicity threshold (mean ANC about 3×10^9/L) ([3]; 5 mg QD, FIG. 5): not met
- time at which toxicity threshold (mean ANC about 3×10^9/L) is crossed ([3]; 20 mg QD, FIG. 6): about 1008 hours
- time at which toxicity threshold (mean ANC about 3×10^9/L) is reached ([3]; 50 mg QD, FIG. 7): 378 hours
- Cmin for efficacy ([3]; HIV, based on in vitro IC50): ≥ 2 ng/mL
- plasma AUCss/24 efficacy threshold ([3]; from 5 mg QD effective for HBV): 300 ng·h/mL
- Cmax in deepest (P1) compartment at onset of toxicity (ANC <3×10^9/L) ([3]; human): > 40 μg/L
- efficacy for HBV (HBV): effective
